In ChEMBL document CHEMBL1151757, “Synthesis, radiosynthesis, and biological evaluation of fluorine-18-labeled 2beta-carbo(fluoroalkoxy)-3beta-(3'-((Z)-2-haloethenyl)phenyl)nortropanes: candidate radioligands for in vivo imaging of the serotonin transporter with positron emission tomography” (J Med Chem, 2008):

Key:
[1] = Drug uptake in anesthetized cynomolgus monkey brain occipital lobe after 165 mins postinjection; type: ADME, organism-based, Macaca fascicularis; conditions: in vivo, 2.75 h
[2] = Ratio of drug uptake in midbrain to cerebellum in anesthetized cynomolgus monkey after 95 mins postinjection; type: ADME, organism-based, Macaca fascicularis; conditions: in vivo
[3] = Ratio of drug uptake in frontal lobe to cerebellum in anesthetized cynomolgus monkey after 35 mins postinjection; type: ADME, organism-based, Macaca fascicularis; conditions: in vivo
[4] = Ratio of drug uptake in pons to cerebellum in anesthetized cynomolgus monkey after 85 mins postinjection; type: ADME, organism-based, Macaca fascicularis; conditions: in vivo
Putamen [5] = assay: Drug uptake in anesthetized cynomolgus monkey brain putamen after 105 mins postinjection; type: ADME, organism-based, Macaca fascicularis; set-up: unit not given here; conditions: in vivo, 1.75 h
Midbrain [6] = assay: Drug uptake in anesthetized cynomolgus monkey brain midbrain after 135 mins postinjection; type: ADME, organism-based, Macaca fascicularis; conditions: in vivo, 2.25 h
[7] = Ratio of drug uptake in putamen to cerebellum in anesthetized cynomolgus monkey after 235 mins postinjection; type: ADME, organism-based, Macaca fascicularis; conditions: in vivo
Pons [8] = assay: Drug uptake in anesthetized cynomolgus monkey brain pons after 95 mins postinjection; type: ADME, organism-based, Macaca fascicularis; conditions: in vivo
[9] = Drug uptake in anesthetized cynomolgus monkey brain occipital lobe after 55 mins postinjection; type: ADME, organism-based, Macaca fascicularis; conditions: in vivo
Midbrain [10] = assay: Drug uptake in anesthetized cynomolgus monkey brain midbrain after 155 mins postinjection; type: ADME, organism-based, Macaca fascicularis; conditions: in vivo
[11] = Drug uptake in anesthetized cynomolgus monkey brain frontal lobe after 0.5 mins postinjection; type: ADME, organism-based, Macaca fascicularis; conditions: in vivo
Caudate [12] = assay: Drug uptake in anesthetized cynomolgus monkey brain caudate after 27.5 mins postinjection; type: ADME, organism-based, Macaca fascicularis, Caudate nucleus; conditions: in vivo
Pons [13] = assay: Drug uptake in anesthetized cynomolgus monkey brain pons after 165 mins postinjection; type: ADME, organism-based, Macaca fascicularis; conditions: in vivo, 2.75 h
Pons [14] = assay: Drug uptake in anesthetized cynomolgus monkey brain pons after 4.5 mins postinjection; type: ADME, organism-based, Macaca fascicularis; conditions: in vivo, 0.075 h
Medulla [15] = assay: Drug uptake in anesthetized cynomolgus monkey brain medulla after 0.5 mins postinjection; type: ADME, organism-based, Macaca fascicularis; conditions: in vivo
Midbrain [16] = assay: Drug uptake in anesthetized cynomolgus monkey brain midbrain after 3.5 mins postinjection; type: ADME, organism-based, Macaca fascicularis; set-up: unit not given here; conditions: in vivo
[17] = Drug uptake in anesthetized cynomolgus monkey brain frontal lobe after 55 mins postinjection; type: ADME, organism-based, Macaca fascicularis; conditions: in vivo
Medulla [18] = assay: Drug uptake in anesthetized cynomolgus monkey brain medulla after 215 mins postinjection; type: ADME, organism-based, Macaca fascicularis; conditions: in vivo
[19] = Ratio of drug uptake in thalamus to cerebellum in anesthetized cynomolgus monkey after 95 mins postinjection; type: ADME, organism-based, Macaca fascicularis; conditions: in vivo
[20] = Ratio of drug uptake in frontal lobe to cerebellum in anesthetized cynomolgus monkey after 135 mins postinjection; type: ADME, organism-based, Macaca fascicularis; conditions: in vivo, 2.25 h
Pons [21] = assay: Drug uptake in anesthetized cynomolgus monkey brain pons after 155 mins postinjection; type: ADME, organism-based, Macaca fascicularis; conditions: in vivo
[22] = Drug uptake in anesthetized cynomolgus monkey brain cerebellum after 3.5 mins postinjection; type: ADME, organism-based, Macaca fascicularis; conditions: in vivo
[23] = Drug uptake in anesthetized cynomolgus monkey brain frontal lobe after 175 mins postinjection; type: ADME, organism-based, Macaca fascicularis; conditions: in vivo
Putamen [24] = assay: Drug uptake in anesthetized cynomolgus monkey brain putamen after 22.5 mins postinjection; type: ADME, organism-based, Macaca fascicularis; set-up: unit not given here; conditions: in vivo, 0.375 h
Thalamus [25] = assay: Drug uptake in anesthetized cynomolgus monkey brain thalamus after 2.5 mins postinjection; type: ADME, organism-based, Macaca fascicularis; set-up: unit not given here; conditions: in vivo
[26] = Ratio of drug uptake in occipital lobe to cerebellum in anesthetized cynomolgus monkey after 12.5 mins postinjection; type: ADME, organism-based, Macaca fascicularis; conditions: in vivo
[27] = Ratio of drug uptake in caudate to cerebellum in anesthetized cynomolgus monkey after 95 mins postinjection; type: ADME, organism-based, Macaca fascicularis; conditions: in vivo
[28] = Drug uptake in anesthetized cynomolgus monkey brain cerebellum after 225 mins postinjection; type: ADME, organism-based, Macaca fascicularis; conditions: in vivo, 3.75 h
Caudate [29] = assay: Drug uptake in anesthetized cynomolgus monkey brain caudate after 4.5 mins postinjection; type: ADME, organism-based, Macaca fascicularis, Caudate nucleus; conditions: in vivo, 0.075 h
[30] = Ratio of drug uptake in occipital lobe to cerebellum in anesthetized cynomolgus monkey after 105 mins postinjection; type: ADME, organism-based, Macaca fascicularis; conditions: in vivo, 1.75 h
Putamen [31] = assay: Drug uptake in anesthetized cynomolgus monkey brain putamen after 2.5 mins postinjection; type: ADME, organism-based, Macaca fascicularis; conditions: in vivo
[32] = Ratio of drug uptake in occipital lobe to cerebellum in anesthetized cynomolgus monkey after 95 mins postinjection; type: ADME, organism-based, Macaca fascicularis; conditions: in vivo
[33] = Ratio of drug uptake in medulla to cerebellum in anesthetized cynomolgus monkey after 18.5 mins postinjection; type: ADME, organism-based, Macaca fascicularis; conditions: in vivo
[34] = Ratio of drug uptake in caudate to cerebellum in anesthetized cynomolgus monkey after 18.5 mins postinjection; type: ADME, organism-based, Macaca fascicularis; conditions: in vivo
[35] = Ratio of drug uptake in caudate to cerebellum in anesthetized cynomolgus monkey after 12.5 mins postinjection; type: ADME, organism-based, Macaca fascicularis; conditions: in vivo
Midbrain [36] = assay: Drug uptake in anesthetized cynomolgus monkey brain midbrain after 125 mins postinjection; type: ADME, organism-based, Macaca fascicularis; set-up: unit not given here; conditions: in vivo
[37] = Ratio of drug uptake in midbrain to cerebellum in anesthetized cynomolgus monkey after 22.5 mins postinjection; type: ADME, organism-based, Macaca fascicularis; conditions: in vivo, 0.375 h
[38] = Drug uptake in anesthetized cynomolgus monkey brain occipital lobe after 2.5 mins postinjection; type: ADME, organism-based, Macaca fascicularis; conditions: in vivo
Thalamus [39] = assay: Drug uptake in anesthetized cynomolgus monkey brain thalamus after 15.5 mins postinjection; type: ADME, organism-based, Macaca fascicularis; set-up: unit not given here; conditions: in vivo
Pons [40] = assay: Drug uptake in anesthetized cynomolgus monkey brain pons after 55 mins postinjection; type: ADME, organism-based, Macaca fascicularis; conditions: in vivo
Putamen [41] = assay: Drug uptake in anesthetized cynomolgus monkey brain putamen after 165 mins postinjection; type: ADME, organism-based, Macaca fascicularis; conditions: in vivo, 2.75 h
Putamen [42] = assay: Drug uptake in anesthetized cynomolgus monkey brain putamen after 65 mins postinjection; type: ADME, organism-based, Macaca fascicularis; set-up: unit not given here; conditions: in vivo
Pons [43] = assay: Drug uptake in anesthetized cynomolgus monkey brain pons after 22.5 mins postinjection; type: ADME, organism-based, Macaca fascicularis; conditions: in vivo, 0.375 h
[44] = Octanol-water partition coefficient, log P at pH 7.4 by shake-flask method; type: physicochemical
Medulla [45] = assay: Drug uptake in anesthetized cynomolgus monkey brain medulla after 18.5 mins postinjection; type: ADME, organism-based, Macaca fascicularis; conditions: in vivo
[46] = Drug uptake in anesthetized cynomolgus monkey brain frontal lobe after 35 mins postinjection; type: ADME, organism-based, Macaca fascicularis; conditions: in vivo
[47] = Ratio of drug uptake in pons to cerebellum in anesthetized cynomolgus monkey after 95 mins postinjection; type: ADME, organism-based, Macaca fascicularis; conditions: in vivo
Midbrain [48] = assay: Drug uptake in anesthetized cynomolgus monkey brain midbrain after 18.5 mins postinjection; type: ADME, organism-based, Macaca fascicularis; set-up: unit not given here; conditions: in vivo
Medulla [49] = assay: Drug uptake in anesthetized cynomolgus monkey brain medulla after 12.5 mins postinjection; type: ADME, organism-based, Macaca fascicularis; conditions: in vivo
[50] = Ratio of drug uptake in medulla to cerebellum in anesthetized cynomolgus monkey after 155 mins postinjection; type: ADME, organism-based, Macaca fascicularis; conditions: in vivo
Caudate [51] = assay: Drug uptake in anesthetized cynomolgus monkey brain caudate after 9.5 mins postinjection; type: ADME, organism-based, Macaca fascicularis, Caudate nucleus; conditions: in vivo
Thalamus [52] = assay: Drug uptake in anesthetized cynomolgus monkey brain thalamus after 12.5 mins postinjection; type: ADME, organism-based, Macaca fascicularis; set-up: unit not given here; conditions: in vivo
[53] = Drug uptake in anesthetized cynomolgus monkey brain frontal lobe after 155 mins postinjection; type: ADME, organism-based, Macaca fascicularis; conditions: in vivo
[54] = Ratio of drug uptake in thalamus to cerebellum in anesthetized cynomolgus monkey after 115 mins postinjection; type: ADME, organism-based, Macaca fascicularis; conditions: in vivo
Pons [55] = assay: Drug uptake in anesthetized cynomolgus monkey brain pons after 12.5 mins postinjection; type: ADME, organism-based, Macaca fascicularis; conditions: in vivo
Thalamus [56] = assay: Drug uptake in anesthetized cynomolgus monkey brain thalamus after 6.5 mins postinjection; type: ADME, organism-based, Macaca fascicularis; set-up: unit not given here; conditions: in vivo
[57] = Drug uptake in anesthetized cynomolgus monkey brain occipital lobe after 22.5 mins postinjection; type: ADME, organism-based, Macaca fascicularis; conditions: in vivo, 0.375 h
[58] = Ratio of drug uptake in caudate to cerebellum in anesthetized cynomolgus monkey after 9.5 mins postinjection; type: ADME, organism-based, Macaca fascicularis; conditions: in vivo
[59] = Ratio of drug uptake in occipital lobe to cerebellum in anesthetized cynomolgus monkey after 0.5 mins postinjection; type: ADME, organism-based, Macaca fascicularis; conditions: in vivo
[60] = Drug uptake in anesthetized cynomolgus monkey brain occipital lobe after 215 mins postinjection; type: ADME, organism-based, Macaca fascicularis; conditions: in vivo
[61] = Drug uptake in anesthetized cynomolgus monkey brain occipital lobe after 6.5 mins postinjection; type: ADME, organism-based, Macaca fascicularis; set-up: unit not given here; conditions: in vivo
[62] = Ratio of drug uptake in thalamus to cerebellum in anesthetized cynomolgus monkey after 195 mins postinjection; type: ADME, organism-based, Macaca fascicularis; conditions: in vivo, 3.25 h
Midbrain [63] = assay: Drug uptake in anesthetized cynomolgus monkey brain midbrain after 185 mins postinjection; type: ADME, organism-based, Macaca fascicularis; conditions: in vivo
[64] = Ratio of drug uptake in pons to cerebellum in anesthetized cynomolgus monkey after 6.5 mins postinjection; type: ADME, organism-based, Macaca fascicularis; conditions: in vivo
Midbrain [65] = assay: Drug uptake in anesthetized cynomolgus monkey brain midbrain after 195 mins postinjection; type: ADME, organism-based, Macaca fascicularis; conditions: in vivo, 3.25 h
[66] = Ratio of drug uptake in occipital lobe to cerebellum in anesthetized cynomolgus monkey after 185 mins postinjection; type: ADME, organism-based, Macaca fascicularis; conditions: in vivo

O=C(OCCC[18F])C1C2CCC(CC1c1cccc(/C=C\Br)c1)N2 (configuration not stated)
Drug uptake [1]: 3.22
Ratio [2]: 1.5
Ratio [3]: 0.7
Ratio [4]: 1.2
Drug uptake (Putamen [5]): 5.21
Drug uptake (Midbrain [6]): 5.36
Ratio [7]: 1.7
Drug uptake (Pons [8]): 4.68
Drug uptake [9]: 4.59
Drug uptake (Midbrain [10]): 5.23
Drug uptake [11]: 0.01
Drug uptake (Caudate [12]): 4.94
Drug uptake (Pons [13]): 3.84
Drug uptake (Pons [14]): 2.44
Drug uptake (Medulla [15]): 0.02
Drug uptake (Midbrain [16]): 2.59
Drug uptake [17]: 3.67
Drug uptake (Medulla [18]): 3.67
Ratio [19]: 1.4
Ratio [20]: 1
Drug uptake (Pons [21]): 4.03
Drug uptake [22]: 2.81
Drug uptake [23]: 2.51
Drug uptake (Putamen [24]): 5.81
Drug uptake (Thalamus [25]): 1.12
Ratio [26]: 0.7
Ratio [27]: 1.3
Drug uptake [28]: 2.03
Drug uptake (Caudate [29]): 2.17
Ratio [30]: 1.1
Drug uptake (Putamen [31]): 1.34
Ratio [32]: 1.1
Ratio [33]: 1
Ratio [34]: 0.7
Ratio [35]: 0.7
Drug uptake (Midbrain [36]): 5.5
Ratio [37]: 1
Drug uptake [38]: 1.03
Drug uptake (Thalamus [39]): 4.64
Drug uptake (Pons [40]): 4.72
Drug uptake (Putamen [41]): 4.31
Drug uptake (Putamen [42]): 5.78
Drug uptake (Pons [43]): 4.89
logD [44]: 1.87
Drug uptake (Medulla [45]): 5.87
Drug uptake [46]: 3.74
Ratio [47]: 1.2
Drug uptake (Midbrain [48]): 5.49
Drug uptake (Medulla [49]): 5.82
Ratio [50]: 1.7
Drug uptake (Caudate [51]): 3.93
Drug uptake (Thalamus [52]): 4.31
Drug uptake [53]: 2.65
Ratio [54]: 1.5
Drug uptake (Pons [55]): 4.51
Drug uptake (Thalamus [56]): 3.71
Drug uptake [57]: 4.5
Ratio [58]: 0.7
Ratio [59]: 1
Drug uptake [60]: 2.7
Drug uptake [61]: 3.31

O=C(OCC[18F])C1C2CCC(CC1c1ccc(/C=C\I)cc1)N2 (configuration not stated)
Ratio [3]: 0.7
Drug uptake (Putamen [5]): 4.34
Drug uptake (Midbrain [6]): 4.7
Ratio [7]: 3.8
Drug uptake (Pons [8]): 3.5
Drug uptake (Midbrain [10]): 4.65
Drug uptake (Caudate [12]): 2.17
Drug uptake (Pons [13]): 3.54
Drug uptake (Pons [14]): 0.8
Drug uptake (Medulla [15]): 0
Drug uptake (Midbrain [16]): 0.84
Drug uptake (Medulla [18]): 3.32
Ratio [19]: 1.9
Drug uptake (Pons [21]): 3.43
Ratio [62]: 2.8
Drug uptake (Putamen [24]): 3.13
Drug uptake (Thalamus [25]): 0.4
Ratio [26]: 0.8
Ratio [27]: 1.4
Drug uptake [28]: 1.08
Drug uptake (Caudate [29]): 0.78
Drug uptake (Putamen [31]): 0.45
Ratio [34]: 0.7
Ratio [35]: 0.8
Drug uptake (Midbrain [36]): 4.62
Drug uptake (Midbrain [63]): 4.64
Drug uptake (Thalamus [39]): 2.54
Drug uptake (Pons [40]): 2.99
Drug uptake (Putamen [41]): 4.22
Ratio [64]: 0.8
Drug uptake (Midbrain [65]): 4.56
Drug uptake (Pons [43]): 2.4
Drug uptake (Medulla [45]): 3.01
Drug uptake [46]: 1.86
Ratio [47]: 1.6
Drug uptake (Midbrain [48]): 2.78
Drug uptake (Medulla [49]): 2.59
Ratio [50]: 2.5
Ratio [66]: 1.4
Drug uptake (Caudate [51]): 1.47
Drug uptake (Thalamus [52]): 2.29
Drug uptake (Pons [55]): 1.88
Drug uptake (Thalamus [56]): 1.7
Ratio [58]: 0.7
Drug uptake [60]: 1.68
Drug uptake [61]: 1.21
